Assay results published in PubChem BioAssay (NCI).
Several values for one entry are separate records, joined by “and”; a condition that tells them apart may be missing. Identical values can stand only once.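 Assay format: 96-well plates, 48-hour exposure. GI50 marks 50% less growth. The concentration for full growth arrest is given as TGI.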

What was measured:
Experiment in all cases: NCI tumour cell line growth inhibition, 48 h
[1] = test system: HOP-92 NSCLC
[2] = test system: MOLT-4 leukemia
[3] = test system: NCI-H460 lung
[4] = test system: SF-268 CNS
[5] = test system: HT29 colon
[6] = test system: RXF 393 renal
[7] = test system: KM12 colon
[8] = test system: SK-MEL-2 melanoma
[9] = test system: SNB-75 CNS
[10] = test system: SW-620 colon

SMILES	GI50 [1]	TGI [1]	GI50 [2]	TGI [2]	GI50 [3]	TGI [3]	GI50 [4]	TGI [4]	GI50 [5]	TGI [5]	GI50 [6]	TGI [6]	GI50 [7]	TGI [7]	GI50 [8]	TGI [8]	GI50 [9]	TGI [9]	GI50 [10]	TGI [10]
CCOc1cc(Cl)c(C(C)NC(=O)c2cccc(OC)c2)cc1OCC (centres undefined)	12.1 µM	> 85.6 µM	5.91 µM	> 100 µM	4.79 µM	> 54.8 µM	23.6 µM	> 100 µM	4.23 µM	44.6 µM	9.21 µM	63 µM	7.19 µM	> 100 µM	4.67 µM	> 100 µM	4.79 µM	49.9 µM	4 µM	> 100 µM
O=C(O)c1ccc(CSc2nc3ccccc3[nH]2)cc1	> 100 µM	> 100 µM	> 100 µM	> 100 µM	> 100 µM	> 100 µM	> 100 µM	> 100 µM	> 100 µM	> 100 µM	> 100 µM	> 100 µM	> 100 µM	> 100 µM	> 100 µM	> 100 µM	> 100 µM	> 100 µM	> 100 µM	> 100 µM
O=C(CCN1CCCCC1)c1csc2ccccc12		> 100 µM		> 100 µM		> 100 µM		> 100 µM		> 100 µM		> 100 µM		> 100 µM		> 100 µM		> 100 µM		> 100 µM
Cc1ccccc1N(CCC#N)C1=NN(C(=O)CC(=O)Nc2ccc(Cl)cc2)C(c2ccccc2)C1 (centres undefined)		> 100 µM		> 100 µM		> 100 µM		> 100 µM		> 100 µM		> 100 µM		> 100 µM		> 100 µM		> 100 µM		> 100 µM
CCc1ccc(Oc2c(-c3ccc(OCCc4cccc(C(F)(F)F)c4)cc3O)n[nH]c2C(F)(F)F)cc1	1.36 µM	5.01 µM	1.84 µM	7.05 µM	1.67 µM	5.74 µM	5.02 µM	11 µM	8.13 µM	14.9 µM	4.94 µM	11.4 µM	4.2 µM	10.8 µM	6.54 µM	13.4 µM	5.82 µM	12.1 µM	1.96 µM	7.57 µM
CC(C)(C)N1CC1CNC(=O)C(=O)NCC1CN1C(C)(C)C (centres undefined)		33.3 µM		31.3 µM		24.7 µM		15.4 µM		19.1 µM		5.22 µM		12.3 µM		10.2 µM		13.2 µM		> 11 µM
Cn1c2c(c3ccccc31)CCN1C[C@@H]3CCCC[C@H]3C[C@@H]21	3.44 µM	34.2 µM	5.55 µM	> 100 µM	3.34 µM	> 36.1 µM	3.22 µM	> 40.2 µM	2.61 µM	8.06 µM	0.964 µM	7.47 µM	2.97 µM	9.97 µM	5.8 µM	> 26.7 µM	4.32 µM	> 100 µM	3.43 µM	> 100 µM
CN1C(=O)C(N=Nc2ccc([N+](=O)[O-])cc2)SC1=S (centres undefined)	1.71 µM	12.3 µM	5.82 µM and 5.81 µM	> 100 µM	2.98 µM and 5.43 µM	24.9 µM and > 100 µM	6.1 µM and 17.3 µM	99.5 µM and > 100 µM	3.63 µM and 10.8 µM	33.7 µM and > 100 µM	16.6 µM and 12.5 µM	97.4 µM and 77.5 µM	1.81 µM and 2.53 µM	17.4 µM and > 100 µM	8.98 µM and 5.29 µM	37.8 µM and 42.5 µM	3.23 µM and 16.1 µM	67.2 µM and 89.1 µM	2.53 µM and 8.17 µM	> 100 µM
COc1ccc(OC)c(C2=C(c3cn(C)c4ccccc34)C(=O)NC2=O)c1	> 25 µM	> 25 µM	24.6 µM	> 25 µM	> 25 µM	> 25 µM	> 25 µM	> 25 µM	> 21.5 µM	> 25 µM	> 25 µM	> 25 µM	22.4 µM	> 25 µM	> 25 µM	> 25 µM	> 25 µM	> 25 µM	20.8 µM	> 25 µM
CC(C)[C@@]12C[C@@H](OC(=O)COC(=O)c3ccccc3)[C@@](C)(O1)[C@@H]1CC[C@@H](C)[C@H]1[C@@H]2OC(=O)/C=C/c1ccccc1	33.5 µM	> 100 µM	> 100 µM	> 100 µM	> 100 µM	> 100 µM		> 100 µM	> 100 µM	> 100 µM	0.284 µM	> 8.44 µM	> 100 µM	> 100 µM	> 100 µM	> 100 µM	> 100 µM	> 100 µM	> 100 µM	> 100 µM
COc1cccc(C(=O)NNc2nc(Cl)nc(N3CCN(C(c4ccccc4)c4ccccc4)CC3)n2)c1	1.57 µM	3.82 µM	2.36 µM	7.54 µM	3.26 µM	12 µM	2.07 µM	4.73 µM	2.12 µM	4.8 µM	2.7 µM	8.28 µM	> 100 µM	> 100 µM	2.14 µM	5.31 µM	1.51 µM	3.56 µM	1.9 µM	3.98 µM
CC[C@]12C=CCN3CC[C@@]4(c5ccc(OC)cc5N(C)[C@H]4[C@@](O)(C(=O)OC)[C@@H]1OC(=O)CCC(=O)O[C@H]1CC[C@H]4[C@@H]5CCC6=CC(=O)CC[C@@H]6[C@H]5CC[C@]14C)[C@@H]32	1.07 µM	4.08 µM	1.55 µM	> 50 µM	3.01 µM	> 50 µM	2.17 µM	> 50 µM	1.6 µM	11.4 µM	1.33 µM	4.21 µM	1.88 µM	> 50 µM	1.24 µM	2.85 µM	1.08 µM	31.4 µM	2.12 µM	> 50 µM
Cn1cc(-c2csc(-c3ccccc3)n2)c2cccnc21	1.81 µM	15.4 µM	10.3 µM	29 µM	16 µM	31 µM	16.8 µM	43 µM	14.2 µM	27.2 µM	14.6 µM	33.2 µM	12.5 µM	25 µM	18.5 µM	42.3 µM	23.5 µM	97.6 µM	14.9 µM	30.1 µM
CCOC(=O)c1c(-c2ccccc2)n2c(=O)cc(C)c3c(O)c(O)cc1c32	10.5 µM	42.8 µM	3.81 µM	17.7 µM	2.6 µM	25.3 µM	3.35 µM	20.2 µM	7.18 µM	84 µM	11.9 µM	30.9 µM	6.74 µM	38.7 µM	4.09 µM	41.3 µM	8.95 µM	88.1 µM	4.74 µM	18.5 µM
CO/N=C(/C)COc1ccc2c(c1)oc(=O)c1cc(OC)ccc12	> 100 µM	> 100 µM	> 100 µM	> 100 µM	> 100 µM	> 100 µM	> 100 µM	> 100 µM	> 100 µM	> 100 µM	> 100 µM	> 100 µM	> 100 µM	> 100 µM	> 100 µM	> 100 µM	57.4 µM	> 100 µM	> 100 µM	> 100 µM
CC(C)n1cc(-c2ccc3c(c2)N(C)CC3)c2c(NS(=O)(=O)c3ccn(C)n3)ccnc21	24.6 µM	> 100 µM	65.7 µM	> 100 µM	47.9 µM	> 100 µM	62 µM	> 100 µM	71.9 µM	> 100 µM	29.1 µM	> 100 µM	47.9 µM	> 100 µM	56.6 µM	> 100 µM	39.9 µM	> 100 µM	69.7 µM	> 100 µM
Cc1c(O)cccc1C(=O)N[C@@H](CSc1ccccc1)[C@H](O)CN1C[C@H]2CCCC[C@H]2C[C@H]1C(=O)NC(C)(C)C	2.47 µM and 6.25 µM	7.62 µM and 25.2 µM	2.22 µM and 2.96 µM	5.46 µM and 10.4 µM	3.48 µM and 4.79 µM	13.8 µM and 11.4 µM	4.5 µM and 5.97 µM	15.8 µM and 26 µM	3.06 µM and 5.65 µM	12 µM and 19.9 µM	1.96 µM and 2.91 µM	4.26 µM and 6.37 µM	3.45 µM and 4.99 µM	10.4 µM and 20.1 µM	5.63 µM and 5.26 µM	> 100 µM and 25.4 µM	2.77 µM and 2.58 µM	14.5 µM and 18.4 µM	5.66 µM and 8.79 µM	27 µM and 29.9 µM
COc1cccc2nc(Nc3cccc(NC(=O)c4ccc(N5CCN(C)CC5)c(C(F)(F)F)c4)c3)ccc12	0.854 µM	4.03 µM	0.876 µM	2.27 µM	0.964 µM	1.98 µM	1.5 µM	7.3 µM	0.712 µM	1.61 µM	0.802 µM	2.96 µM	1.09 µM	2.56 µM	1.36 µM	3.65 µM	0.695 µM	1.68 µM	0.968 µM	2.08 µM
CC(=O)OC1C(O)C(C)OC(OC2C(OC(=O)C3CCC4C(C3)OC3(CC(OC(=O)/C=C/c5ccccc5)C(C)CO3)C43CO3)OC(C)C(O)C2OC(C)=O)C1O (centres undefined)		0.0344 µM		0.032 µM		0.141 µM		0.0499 µM		0.0473 µM		0.121 µM		0.0562 µM		0.0189 µM		0.0317 µM		0.184 µM
